Patent publication US20250228824A1, “COMPOSITIONS AND METHODS FOR INHIBITION OF ITO AS TREATMENT FOR THE J WAVE SYNDROMES AND HYPOTHERMIA” (Lankenau Institute for Medical Research, priority 2021, published 2025)

Experiments:
[1] = tested on: coronary-perfused canine right ventricular (RV) wedge models of JWS, hypothermia; assay: Coronary-perfused RV wedge model of hypothermia (NS5806 plus decreasing temperature); conditions: NS5806 2 μM, 32.7±0.5° C., AR-787 10 μM, 20 min
Experimental: Transmural wedges were dissected from the base of the RV and LV. During the cannulation procedure, preparations were initially arterially perfused with cardioplegic solution. Next, the wedge preparations were placed in a tissue bath and perfused with a modified Krebs-Henseleit solution (K—H) bubbled with 95% O2/5% CO2 warmed to 37° C. The composition of K—H was (in mM): 118 NaCl, 4 KCl, 2 CaCl2, 1.2 MgSO4, 24 NaHCO3, 1.2 NaH2PO4, 2 Na Pyruvate and 10 D-Glucose. The perfusate was delivered at a constant pressure (45-50 mmHg). A transmural pseudo-ECG (ECG) was recorded using two Ag/AgCl half cells placed at ˜1 cm from the Epi (+) and Endo (−) surfaces along the same axis as the transmembrane action potential (AP) recordings. APs were simultaneously recorded from the immediate sub-Epi and M cell region (˜2-3 mm from the Endo surface) using floating glass microelectrodes. […] A detailed description of the arterially-perfused ventricular wedge preparation has been previously published.^5 ECG and AP signals were digitized and analyzed using Spike 2 for Windows (Cambridge Electronic Design, Cambridge, UK). […]
FIG. 9A-9C show the ability of AR-787 to suppress the ECG and arrhythmic manifestations in a model of hypothermia. […] The third grouping was recorded 10 minutes after lowering the temperature of the perfusate to 32.7±0.5° C. […] The fourth column was recorded 20 min after addition of AR-787 (10 μM).

[2] = tested on: canine right ventricular epicardial myocytes; assay: Action potential recording (current clamp) in canine RV epicardial myocytes; format: cell-based; conditions: 10 μM
Experimental: (§1) Single myocytes were isolated from coronary-perfused canine right or left ventricular wedge preparations via enzymatic dissociation. Briefly, the wedge preparations were coronary perfused with nominally Ca^+2-free Tyrode's solution for a period of 15 min. They were then subjected to enzymatic digestion in nominally Ca^2+-free solution supplemented with 0.6 mg/ml collagenase (type II; Worthington) and 0.075 mg/ml protease (type XIV; Sigma) for 25-35 min. The wedge preparation was then perfused for 15 min with a taurine buffer solution containing (in mM): 108 NaCl, 10 HEPES, 11 D-glucose, 4 KCl, 1.2 MgSO4, 1.2 NaH2PO4, 50 taurine and 0.025 CaCl2. pH was adjusted to 7.4 using NaOH. After perfusion, thin slices of tissue were cut from the epicardial surface to obtain single epicardial cells as previously described.^6
Ito and APs were measured in isolated RV or LV myocytes. APs were measured in the current-clamp mode in the whole-cell configuration. APs were initiated using intracellular current injection and recorded continuously by means of Clampex software (Axon Instruments/Molecular Devices) at a sampling frequency of […]. Ito was measured using the Axopatch 200B-2 amplifier in V-Clamp mode.

[3] = tested on: coronary-perfused canine right (RV) and left (LV) ventricular wedge models of JWS; assay: Coronary-perfused ventricular wedge models of the J wave syndromes (NS5806 alone or with verapamil); design: QT interval / T wave amplitude / Epi (APD50) / Epi (APD90): unit not given here
Experimental: Ten hearts from purpose-bred adult male mongrel dogs (20-22 kg) were acquired from Covance (Denver, PA) and another 10 hearts from purpose-bred adult male Beagle dogs (10-16 kg) were obtained from Envigo (Denver, PA). Dogs were sedated with ketamine (10 mg/kg, IM) and xylazine 2 (mg/kg, IM). Prior to euthanasia (Euthasol solution: pentobarbital sodium and phenytoin sodium; 0.22 ml/kg, IV), and heparin (human pharmaceutical grade, 1,000 U/kg, IV) were administered 3-4 min before isolation of the hearts via a left thoracotomy. Retrograde aortic perfusion of the hearts with ice-cold cardioplegic solution (modified K-H solution; 16 mM KCl) was immediately performed to rinse the coronary vasculature of blood. The hearts were then placed in a sealed container containing ice-cold cardioplegic solution and transported to our institution via private courier in an insulated package filled with icepacks.
Transmural wedges were dissected from the base of the RV and LV. During the cannulation procedure, preparations were initially arterially perfused with cardioplegic solution. Next, the wedge preparations were placed in a tissue bath and perfused with a modified Krebs-Henseleit solution (K—H) bubbled with 95% O2/5% CO2 warmed to 37° C. The composition of K—H was (in mM): 118 NaCl, 4 KCl, 2 CaCl2, 1.2 MgSO4, 24 NaHCO3, 1.2 NaH2PO4, 2 Na Pyruvate and 10 D-Glucose. The perfusate was delivered at a constant pressure (45-50 mmHg). A transmural pseudo-ECG (ECG) was recorded using two Ag/AgCl half cells placed at ˜1 cm from the Epi (+) and Endo (−) surfaces along the same axis as the transmembrane action potential (AP) recordings. APs were simultaneously recorded from the immediate sub-Epi and M cell region (˜2-3 mm from the Endo surface) using floating glass microelectrodes. Pacing was applied to the Endo surface using bipolar silver electrodes insulated except at the tips (Basic Cycle Lengths [BCLs]: 500-2,000 ms). A detailed description of the arterially-perfused ventricular wedge preparation has been previously published.^5 ECG and AP signals were digitized and analyzed using Spike 2 for Windows (Cambridge Electronic Design, Cambridge, UK).
We used the Ito-agonist NS5806 (5-10 μM) alone or with the calcium-channel blocker verapamil (2.5 μM) to pharmacologically mimic the effects of the ion channel genetic defects underlying ERS and BrS. These provocative agents were added to the coronary perfusate in increasing concentrations until the characteristic ECG phenotypes were unmasked, including phase 2 reentry (P2R), closely coupled premature beats (CCPBs) and/or pVT/VF. AR-787 was added to the perfusate to test its ability to suppress or prevent arrhythmogenesis.

CaV1.2 (ICa) = assay: Whole-cell patch clamp of ICa in canine ventricular myocytes; format: cell-based; conditions: 10 μM; at 0 mV; control −5.13+0.77; shift not statistically significant
Experimental: as §1
ICa was measured in canine ventricular myocytes at 37° C. ICa was elicited by application of 300 ms steps from −50 to +40 mV. Extended protocols were avoided to prevent current rundown. Internal solution contained (in mM): 120 CsCl, 1 MgCl2, 10 EGTA, 5 Mg-ATP, 10 HEPES, 5 CaCl2. pH was adjusted to 7.2 with CsOH. External solution contained (in mM): 140 NaCl, 10 HEPES, 10 D-glucose, 4 KCl, 1 MgCl2, 2 CaCl2, 2 4-AP and 0.1 BaCl2.

[4] = AR-787 10 μM following NS5806 5-10 μM, 3 LV wedges, BCL 800 msec

Compound: Cc1nc(-n2cccc2)sc1C(=O)N=c1[nH]c2ccccc2[nH]1 [AR-787, N-(1H-benzimidazol-2-yl)-4-methyl-2-pyrrol-1-yl-thiazole-5-carboxamide]
- hypothermia-induced AP notch, J wave, phase 2 reentry and pVT [1]: diminished the action potential (AP) notch and J wave
- Action potential duration (APD) [2]: tendency to abbreviate but this effect was not statistically significant
- effect on AP notch ([2]; 0.5 Hz): significantly suppressed the AP notch
- effect on NS5806-induced J wave syndrome phenotype ([3]; AR-787 10 μM after NS5806 5-10 μM): reversed these effects induced by NS5806
- Epi (APD50) [3, 4]: 173.9 ± 7.8
- Epi (APD90) [3, 4]: 209.0 ± 8.1
- J wave amplitude [3, 4]: 8.7 ± 5.7
- M (APD50) [3, 4]: 179.0 ± 11.4
- M (APD90) [3, 4]: 235.0 ± 11.1
- Ph1 mag (% Ph0) [3, 4]: 25.4 ± 4.9 % Ph0
- QT interval [3, 4]: 254.3 ± 10.0
- T wave amplitude [3, 4]: 19.0 ± 1.8
- manifestation of AP notch and ECG J wave ([3]; AR-787 1, 10 and 50 μM after NS5806 10 μM, LV and RV wedges): concentration-dependent diminution in the manifestation of the AP notch and associated ECG J wave
- QT interval ([3]; AR-787 1, 10 or 50 μM, NS5806 5-10 μM, five wedges): unaffected
- effect on NS5806-augmented Epi Ph1 magnitude and J wave amplitude ([3]; AR-787 1, 10 or 50 μM, NS5806 5-10 μM, five wedges (4 LV and 1 RV)): readily reversed the effect of NS5806
- ECG and arrhythmic manifestations (extrasystole, polymorphic VT) in ERS model ([3]; LV wedge, NS5806 10 μM and verapamil 2.5 μM, AR-787 10 μM, 30 min): reduced Phase 1 magnitude, restored the AP dome and totally suppressed all arrhythmic activity
- restoration of AP dome and suppression of Phase 2 reentry extrasystoles ([3]; RV wedge, 40 min NS5806 10 μM, AR-787 50 μM but not 10 μM): effective in fully restoring the AP dome and in totally suppressing this arrhythmic activity
- ICa peak density (CaV1.2 (ICa)): −6.95+1.88 pA/pF
